We go through three molecules from patent US20100048519A1, “METHODS OF TREATMENT FOR ULCERATIVE COLITIS USING AMINOSALICYLATE” (priority 2006, published 2010).

Holding throughout (format): in vivo, human
Series [1] relates to person diagnosed with moderate Ulcerative colitis. In words: Single-patient treatment examples (Examples 2-5): person diagnosed with moderate ulcerative colitis. The text has this:
A 70 kg person diagnosed with moderate Ulcerative colitis is prescribed a pharmaceutical oral composition comprising 1.2 g of olsalazine (mol. wt. 302.24), a mesalamine dimer, two tablets to be taken twice daily for a total of 4.8 g/day of the 5-ASA dimer (5-ASA mol. wt.=153.14). The patient takes two tablets of the pharmaceutical in the morning and two tablets in the evening such that about 4.8 g/day of 5-ASA is delivered. The Physician's Global Assessment (PGA) score improves in comparison to baseline and rectal bleeding reduces. A 72 kg person diagnosed with moderate Ulcerative colitis is prescribed a pharmaceutical composition comprising four 1.2 g mesalamine delayed-release tablets, to be taken once daily. The four tablets are taken in the morning so that 4.8 g/day of 5-ASA is delivered. The Physician's Global Assessment (PGA) score improves in comparison to baseline and rectal bleeding reduces. A 75 kg person diagnosed with moderate Ulcerative colitis is prescribed a pharmaceutical oral composition comprising two 1.2 g balsalazide delayed-release tablets, to be taken three times daily for a total of 7.2 g/day of balsalazide; this regimen is calculated to deliver about 3.1 g of 5-ASA. The Physician's Global Assessment (PGA) score improves in comparison to baseline and rectal bleeding reduces. A 71 kg person diagnosed with moderate Ulcerative colitis is prescribed a pharmaceutical composition comprising a rectal mesalamine foam. The foam is administered three times per day (morning, afternoon, and evening) such that 1 g of mesalamine is administered at each interval for a total of 3 g of mesalamine per day. The Physician's Global Assessment (PGA) score improves in comparison to baseline and rectal bleeding is reduced.

The test system of series [2] is male patients with moderate ulcerative colitis. As to the kind of experiment: Study 1: phase III, multi-center, randomized, double-blind, controlled clinical trial, overall improvement (treatment success) at week 6. The conditions noted are these: moderate disease. The protocol: (§1) Administration of mesalamine at 4.8 g/day via three daily doses consisting of two, 800 mg dosage tablets provides a clear efficacy benefit over 2.4 g/day of mesalamine given as three daily doses consisting of two, 400 mg dosage tablets and addresses an unmet medical need for men with moderate ulcerative colitis. […] Data from patients with mild to moderate Ulcerative colitis (UC) are combined and analyzed from two phase III, multi-center, randomized, double-blind, controlled clinical trials of identical design assessing the safety and clinical efficacy of the increased dosage of 5-ASA. The two clinical trials are referred to herein as “Study 1” and “Study 2.” The primary endpoint is the percentage of moderate UC patients achieving overall improvement (i.e., treatment success) from baseline at week 6. This is defined as: (1) complete response (remission); complete resolution of signs and symptoms (stool frequency, rectal bleeding, Patient Functional Assessment (PFA) and sigmoidoscopy score) and a Physician's Global Assessment (PGA) of 0; or (2) partial response; improvement from baseline in the PGA score and improvement in at least one clinical assessment (stool frequency, rectal bleeding, PFA or sigmoidoscopy score) and no worsening in any of the other clinical assessments. […]

The test system is the same in series [3]. In words: Study 2: phase III, multi-center, randomized, double-blind, controlled clinical trial, overall improvement (treatment success) at week 6. The conditions noted are these: moderate disease. The protocol:
as §1

For series [4] the test system is unchanged. As to the kind of experiment: Bayesian analysis of success rate in men with moderate disease. How it is done: In addition, a Bayesian analysis is conducted to calculate the probability that treatment with the 4.8 g/day dose in men results in a higher success rate than treatment with the 2.4 g/day dose. This type of analysis considers data from any previous studies conducted using either of the two dose levels. Success rates from male patients with moderate disease at baseline from three previous mesalamine studies are used to estimate the prior distributions for the 2.4 g/day dose and the 4.8 g/day dose. Using these prior distributions and Bayes analyses, the “posterior distribution” is calculated for each dose level based on the data obtained from […].

For series [5] the test system is unchanged. In words: Study 1 and Study 2 combined: subgroup analyses and safety. How it is done: Data from patients with mild to moderate Ulcerative colitis (UC) are combined and analyzed from two phase III, multi-center, randomized, double-blind, controlled clinical trials of identical design assessing the safety and clinical efficacy of the increased dosage of 5-ASA. The two clinical trials are referred to herein as “Study 1” and “Study 2.” Pre-specified subgroup analyses for fifty-four demographic and baseline characteristics are performed in patients with moderately active disease (PGA score=2) to assess consistency of primary endpoint. […] To further evaluate the robustness of the results in men with moderate disease, whisker plots (i.e., point estimate and 95% confidence interval for the difference between the 2.4 g/day group and the 4.8 g/day group) for various subgroups defined on the basis of baseline characteristics (e.g., disease severity, demographic parameters) are prepared. […] FIG. 1 (a) is a subgroup analysis of treatment outcome at week 6 for male patients with moderate disease for Study 1 and Study 2 combined; (b) is a subgroup analysis of treatment outcome at week 6 for female patients with moderate disease for Study 1 and Study 2 combined. FIG. 2 (a) is a subgroup analysis of treatment outcome at week 6 for male patients with moderate disease for Study 1 and Study 2 combined; (b) is a subgroup analysis of treatment outcome at week 6 for female patients with moderate disease for Study 1 and Study 2 combined. FIG. 3 (a) is a subgroup analysis of treatment outcome at week 6 for male patients with moderate disease for Study 1 and Study 2 combined; (b) is a subgroup analysis of treatment outcome at week 6 for female patients with moderate disease for Study 1 and Study 2 combined. […]

Setting [6] is: Example 4, oral, two 1.2 g delayed-release tablets three times daily, 7.2 g/day (about 3.1 g 5-ASA), 75 kg person.
Setting [7] is: Example 3, four 1.2 g delayed-release tablets once daily, 4.8 g/day, 72 kg person.

The structures appear in SMILES notation.

Consider `O=C(O)CCNC(=O)c1ccc(/N=N/c2ccc(O)c(C(=O)O)c2)cc1` [balsalazide, (E)-5-[[4-[[(2-carboxyethyl)amino]carbonyl]phenyl]azo]-2-hydroxybenzoic acid], for which, in series [1] (setting [6]), the “Physician's Global Assessment (PGA) score in comparison to baseline” value (shortened to “Physician's Global Assessment”) is on record as “improves” and the Rectal bleeding result is listed as “reduces”.

Regarding `Nc1ccc(O)c(C(=O)O)c1` [mesalamine, 5-amino-2-hydroxybenzoic acid], the “Difference in Proportions (4.8 g/day vs 2.4 g/day)” value in series [2] (Primary Analysis) was determined as 25.5%; in series [2] (Set-to-Failure analysis) it was 27.3%; in series [3] (Primary Analysis), 27.5%; in series [3] (Set-to-Failure analysis) it was 24.8%. Also, the “Probability of a successful treatment outcome (Bayes analysis)” value in series [4] (2.4 g/day dose, 95% credible interval 35.7%, 58.9%) is 47.2%; in series [4] (4.8 g/day dose, 95% credible interval 64.9%, 83.5%), 74.7%. The “Probability that 4.8 g/day dose results in a higher success rate than 2.4 g/day dose” value in series [4] (Bayes analysis) is listed as 99.97%. The “Safety profile of 4.8 g/day regimen versus 2.4 g/day regimen” value in series [5] (4.8 g/day (800 mg tablet) vs 2.4 g/day (400 mg tablet), oral delayed-release) is listed as “comparable”. In addition, the “Difference between 4.8 g/day group and 2.4 g/day group across pre-specified subgroups” value in series [5] (males with moderate disease, combined population, 51 of 54 subgroups) is given as “consistently superior to the 2.4 g/day group”. Moreover, in series [5] (men with moderate disease, both studies), the “Observed differences in success rate between treatment groups (4.8 vs 2.4 g/day)” value is “approximately 25%”. The “Physician's Global Assessment” value in series [1] (setting [7]) was “improves”. Moreover, the Rectal bleeding result in series [1] (setting [7]) is on record as “reduces”.

For `O=C(O)c1cc(N=Nc2ccc(O)c(C(=O)O)c2)ccc1O` [olsalazine, 3,3′-dicarboxy-4,4′-dihydroxyazobenzene], the “Physician's Global Assessment” value in series [1] (Example 2, oral, two 1.2 g tablets twice daily, 4.8 g/day, 70 kg person) was “improves”.
